Test results reported in US8329195B2, “Detoxified pneumococcal neuraminidase and uses thereof” (priority 2007, dated 2012).

Assays:
[1] = Matsubura et al. 1999; cited from earlier work
[2] = tested on: S. pneumoniae strain EF3030; assay: GLS preincubation of S. pneumoniae strain EF3030 before nasal application to xid mice, CFU in tissues; type: in vivo, Streptococcus pneumoniae; details: four days after nasal application
Method: Aliquots (3×10^7 CFUs) of S. pneumoniae were incubated for 30 minutes with 20 μg asialo-GM1 (a-GM1) or 125 μg of mixed GLSs (MG) prior to nasal application. The ON/E, OBs, brain and NW, NALT and lungs were collected four days later and analyzed for numbers of S. pneumoniae. The 0 value on the Y-axis represents the absence of detectable CFUs. Indicated are the mean+one SE of 5 mice and the P-values were obtained following statistical analysis with the Student's t-test or the Mann-Whitney two sample rank test, as appropriate for the data examined. The data are representative of two separate experiments.
Eight serial, three-fold dilutions were made of tissues and body fluids in sterile Ringer's solution and plated on blood agar plates containing […] gentamicin sulfate. The CFU were enumerated 24 hr after plating and incubation in a candle jar. The results were expressed as CFUs/organ, per NW or per ml of blood.
To block GLS binding sites, 3×10^7 CFU of S. pneumoniae strain EF3030 were incubated for 30 min on ice with either 20 μg asialo-GM1 from human brain or 125 μg of mixed GLSs (18% GM1, 55% GD1a, 15% GD1b, 10% GT1b, 2% other GLSs) from bovine brain (Calbiochem-Novabiochem Corporation, Inc., La Jolla, Calif.). GLSs were dissolved in PBS and extensively mixed a day prior to use. […] Tissues were analyzed for CPUs four days later.

TIGR4 strain = assay: Attachment of TIGR4 strain to ganglioside-coated ELISA plates; type: binding, Streptococcus pneumoniae; details: short-term incubation with the TIGR4 strain
Method: The ability of the TIGR4, and its nanA and nanB mutants to bind to specific gangliosides is measured. The gangliosides used include mixed gangliosides, asialo-GM1, GM1, GD1a, GD1b, GT1 (Calbiochem) and the GM3 ganglioside (Sigma) The GM3 ganglioside lacks the terminal or internal GalNAcβ1-4Gal sequence involved in pneumococcal binding and is used as a negative control. These mixed, mono-, di- or tri-sialic acid containing gangliosides bind readily to ELISA plates. […] Using ganglioside-coated plates, the ability to attach to these plates by wildtype TIGR4 strain, the stable opaque and transparent phase variants of the TIGR4 strain, the nanA, nanB, and nanA/nanB mutant strains is compared. These analyses include short-term incubation (1 hr) and extended incubations (24 hrs) on ganglioside-coated plates, Attached pneumococci are removed from the ganglioside plates by short incubation (10-15 min.) in Todd Hewitt medium containing 0.5% yeast extract followed by repeated pipetting and plating the released bacteria on blood agar plates. Alternatively 41° C. Todd Hewitt broth agar containing 0.5% yeast extract is poured on top of the attached pneumococci and the colonies are counted through the bottom of the plate. Controls include plates with no pneumococci and plates with no gangliosides but with pneumococci.

PAF-R = PAF-R (Homo sapiens, UniProt P25105); details: cited from earlier work
Chain of PAF-R (P25105 whole entry, species assumed): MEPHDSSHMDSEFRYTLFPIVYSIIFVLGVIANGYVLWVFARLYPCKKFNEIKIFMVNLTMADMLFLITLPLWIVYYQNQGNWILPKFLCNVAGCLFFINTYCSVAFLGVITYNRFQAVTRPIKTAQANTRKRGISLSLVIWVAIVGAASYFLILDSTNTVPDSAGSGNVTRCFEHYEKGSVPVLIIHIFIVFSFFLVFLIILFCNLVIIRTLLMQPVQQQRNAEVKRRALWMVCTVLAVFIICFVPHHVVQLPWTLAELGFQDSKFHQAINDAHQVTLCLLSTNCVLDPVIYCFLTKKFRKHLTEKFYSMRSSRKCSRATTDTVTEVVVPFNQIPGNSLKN

VWRLLAPPFSNRLLP [GM1-binding peptide]
IC50 [1]: 1 µM
affinity for GM1 [1]: 10^10 M^−1

asialo-GM1
reduced colonization in CNS ([2]; CNS): 25 fold
reduced colonization in lungs ([2]; lungs): 63 fold
binding of pneumococci to coated plates (TIGR4 strain): bind and attachment

CCCCCCCCOc1ccccc1C(=O)Nc1ccc(C(=O)OCC[N+](C)(CC)CC)cc1 [octylonium bromide]
binding to the PAF-R (PAF-R): binds with high affinity

GM1
binding of pneumococci to coated plates (TIGR4 strain): not

GM3 [GM-3]
binding of pneumococci to coated plates (TIGR4 strain): not
